The numbers were not newly measured in the CATMoS acute toxicity set (Mansouri et al. 2021), which cites them from elsewhere.

Each structure is given as a SMILES string. “And” between values parts separate entries of the source, which are not always exact repeats. Equal values may be shown once.

This series is described as follows: rat acute oral toxicity. Conditions: in vivo.
Broadly, the LD50 is the dose at which mortality reaches 50%. Take `C[C@@H]1CCC[C@H](C)N1CCCC(O)(c1ccccc1)c1ccccn1` (stereo not given in full): the LD50 was 251 mg/kg.
With `O=C(O)CONC(=O)c1ccccc1`, the LD50 is 2500 mg/kg.
As to `Cc1cccc(N2CCN(CCC(O)c3ccc4c(c3)CCC(=O)N4)CC2)c1C` (stereo not given), the LD50 was 500 mg/kg.
Consider `CCOP(=O)(OCC)SC(P(=O)(OCC)OCC)(P(=O)(OCC)OCC)P(=O)(OCC)OCC`, for which the LD50 is 28 mg/kg.
As to `CCC(C)CO` (stereo not given), the LD50 was 4170 mg/kg.
On to `OCC1COC(c2ccccc2)O1` (stereo not given), for which the LD50 is 3150 mg/kg.
For the compound `O=C(OCCCOCCCOC(=O)c1ccccc1)c1ccccc1`, the LD50 is 9800 mg/kg.
Turning to `CCC(C)=CCCC(C)=CC#N`, the median lethal dose (LD50) is 2600 mg/kg.
For `CC(C)C(Br)C(=O)OC(C)C(Cl)(Cl)Cl` (stereo not given), the 50% lethal dose (LD50) was 1200 mg/kg.
`CC(=O)Oc1c([N+](=O)[O-])cc([N+](=O)[O-])cc1C(C)(C)C`: the median lethal dose (LD50) was 62 mg/kg.
For the compound `CCCCNC(=S)Nc1ccccc1`, the LD50 was 150 mg/kg.
As to `NC1CCCCC1`, the LD50 was 720 mg/kg and 1650 mg/kg.
On to `CCCC(=O)NP(=O)(OC)SC` (stereo not given), for which the LD50 is 125 mg/kg.
In the case of `Nc1ccccc1Cl`, the LD50 was 1020 mg/kg.
In the case of `CC1(C)CC(=O)C(N)C(C)(C)N1` (stereo not given), the median lethal dose (LD50) was 920 mg/kg.
Turning to `CCOC(=O)NNc1ccc(N(CC)CC(C)O)nn1` (stereo not given), the 50% lethal dose (LD50) is 2060 mg/kg.
With `CCN(CCC#N)c1cccc(C)c1`, the LD50 is 3710 mg/kg.
On to `CN=C(O)O/N=C1/COCS1`, for which the 50% lethal dose (LD50) was 49 mg/kg.
As for `COc1ccc2c3c1O[C@H]1[C@@H](OC(=O)c4cccnc4)C=C[C@H]4[C@@H](C2)N(C)CC[C@@]341`, the LD50 is 840 mg/kg.
Take `N#Cc1cc(Cl)c2nc(C(F)(F)F)[nH]c2c1`: the LD50 is 2.4 mg/kg.
Turning to `N#C[C@H](O[C@@H]1O[C@H](CO)[C@@H](O)[C@H](O)[C@H]1O)c1ccccc1`, the LD50 was 560 mg/kg.
As for `CCCCCC(C)O` (stereo not given), the 50% lethal dose (LD50) is 2580 mg/kg.
With `CN(CCCO)CCC(c1ccccc1)c1ccccc1`, the LD50 was 1400 mg/kg.
Consider `Oc1ccc(Cc2ccc(O)cc2)cc1`, for which the LD50 was 4950 mg/kg.
As to `CC(=O)c1cc2cccc(OCC(O)CNC(C)C)c2o1` (stereo not given), the LD50 is 922 mg/kg.
As to `O=C(NC(CCc1ccc2c(c1)OCO2)CCc1ccc2c(c1)OCO2)c1ccc(Cl)cc1`, the LD50 is 1800 mg/kg.
For `CCOP(=O)(NC(C)C)SCC(=O)NCOC` (stereo not given), the LD50 is 100 mg/kg.
With `CC1COCC(C)N1C(=O)C[n+]1ccc(-c2cc[n+](CC(=O)N3C(C)COCC3C)cc2)cc1` (stereo not given), the LD50 was 345 mg/kg.
Consider `CCCCC(CC)COC(=O)CCCCCCCCCCC(=O)OCC(CC)CCCC` (stereo not given), for which the LD50 is 21500 mg/kg.
With `OCCCc1ccccc1`, the LD50 was 2300 mg/kg.
Turning to `C=CCOC(=O)CC(SP(=S)(OC)OC)C(=O)OCC(C)SP(=S)(OC)OC` (stereo not given), the LD50 was 762 mg/kg.
On to `CCN1C[C@]2(COC)[C@H](O)C[C@H](OC)[C@]34C1[C@H]([C@H](OC)[C@H]23)[C@]1(OC(C)=O)[C@H]2[C@@H](OC(=O)c3ccccc3)[C@](O)(C[C@H]24)[C@@H](OC)[C@@H]1O`, for which the 50% lethal dose (LD50) is 5.97 mg/kg.
In the case of `C[C@H](CCc1ccccc1)NC[C@H](O)c1ccc(O)c(C(N)=O)c1`, the LD50 was 1030 mg/kg.
As to `CCC(=O)c1ccc(OCC(O)CO)c(OC)c1` (stereo not given), the median lethal dose (LD50) was 1640 mg/kg.
For `NC(=S)NNCNNC(N)=S`, the LD50 was 6.35 mg/kg.
`C=CC(CCC(=O)O)OC(C)=O` (stereo not given): the median lethal dose (LD50) is 543 mg/kg.
As for `C=CC(=O)Nc1ccc(O)cc1`, the LD50 was 930 mg/kg.
For the compound `O=C1c2ccccc2-c2c([N+](=O)[O-])cc3c4cc([N+](=O)[O-])c5c6c(ccc(c7ccc1c2c73)c64)C(=O)c1ccccc1-5`, the LD50 is 10000 mg/kg.
As to `O=P(O)(O)CN(CC(O)CN(CP(=O)(O)O)CP(=O)(O)O)CP(=O)(O)O`, the LD50 was 4300 mg/kg.
`N[C@@H](Cc1c[nH]c2ccc(O)cc12)C(=O)O`: the LD50 was 243 mg/kg.
Consider `O=S(=O)(O)OCCOc1cc(Cl)c(Cl)cc1Cl`, for which the LD50 was 720 mg/kg.
For the compound `CCCCCCCCCCCCOCC(O)COS(=O)(O)=S` (stereo not given), the LD50 was 1820 mg/kg.
Take `O=c1n(CCCN2CCN(c3cccc(Cl)c3)CC2)nc2ccccn12`: the LD50 is 690 mg/kg.
Turning to `CCCCc1c(C)nc(NCC)nc1O`, the LD50 was 4000 mg/kg.
On to `CCCCC(C)(C)O[Si](OC(C)(C)CCCC)(OC(C)(C)CCCC)OC(C)(C)CCCC`, for which the LD50 was 60300 mg/kg.
For the compound `CC1(C)[C@H](C=C(Cl)Cl)[C@H]1C(=O)OCc1c(F)c(F)c(F)c(F)c1F`, the LD50 was 85 mg/kg.
`CCCCC(CC)CN1C(=O)C2C3C=CC(C3)C2C1=O` (stereo not given): the LD50 is 2800 mg/kg.
As to `CCN(CC)CC1CCCCN1CC(=O)N1c2ccccc2C(=O)Nc2cccnc21` (stereo not given), the LD50 was 1530 mg/kg.
For the compound `CCC(CO)NC(=O)C1C=C2c3cccc4[nH]cc(c34)CC2N(C)C1` (stereo not given), the LD50 is 93 mg/kg.
Take `CCOP(=S)(OCC)SC(C(=O)OCCF)c1ccccc1` (stereo not given): the LD50 is 5 mg/kg.
For the compound `CC(C)c1cc(Oc2c(I)cc(CC(=O)O)cc2I)ccc1O`, the LD50 was 5.4 mg/kg.
`CCC(Cc1c(I)cc(I)c(N)c1I)C(=O)O` (stereo not given): the LD50 was 2990 mg/kg and 1540 mg/kg.
As for `O=C1OC(=O)C2CC=CCC12` (stereo not given), the LD50 is 5410 mg/kg.
As for `CC(Cl)(Cl)Cl`, the LD50 was 9600 mg/kg.
On to `CCNC(=O)Oc1c(Cl)c(Cl)cc2[nH]c(C(F)(F)F)nc12`, for which the LD50 was 103 mg/kg.
`C=Cc1ccc(Cl)cc1`: the LD50 was 5200 mg/kg.
For the compound `COP(=S)(OC)SCn1nc(Cl)c(Cl)cc1=O`, the LD50 is 12000 mg/kg.
As for `CN(C)C(=O)n1c(Br)nc(Br)c1Br`, the LD50 is 50 mg/kg.
On to `[2H]C([2H])([2H])N(COC(C)=O)N=O`, for which the LD50 is 120 mg/kg.
As to `CCOP(=S)(OCC)Oc1ccc(N)cc1`, the LD50 was 450 mg/kg.
Turning to `CON=Cc1ccc(OCC(O)(Cn2cncn2)C(C)(C)C)cc1` (stereo not given), the LD50 was 921 mg/kg.
As for `Fc1cc(Cl)c2nc(C(F)(F)F)[nH]c2c1`, the LD50 is 1.98 mg/kg.
Consider `CCN(CC)CCNc1c(Cl)cc(C)c2ncccc12`, for which the LD50 is 900 mg/kg.
Consider `O=C(Nc1cccc(Cl)c1)OCC#CCCl`, for which the median lethal dose (LD50) is 527 mg/kg.
Consider `O=C1OC(=O)c2ccc(Cl)c3cccc1c23`, for which the LD50 is 3460 mg/kg.
As for `CCSCC`, the LD50 was 3420 mg/kg.
For `CCC(C)c1ccccc1` (stereo not given), the LD50 was 2240 mg/kg.
Take `CC(C)N(CCON=C1CCCCCC1=Cc1ccccc1)C(C)C`: the LD50 is 537 mg/kg.
As to `O=C1C(Cl)C(CCl)CN1c1cccc(C(F)(F)F)c1` (stereo not given), the LD50 is 3650 mg/kg.
As for `CC(=O)OCC[N+](C)(C)C`, the median lethal dose (LD50) was 2500 mg/kg.
On to `COP(=S)(OC)SCc1ccc(SP(=S)(OC)OC)cc1`, for which the LD50 was 265 mg/kg.
As for `CCC(C)C(=O)OC1C(OC(C)=O)c2c(ccc3ccc(=O)oc23)OC1(C)C` (stereo not given), the LD50 was 1210 mg/kg.
Regarding `O=C1C=CC(=O)c2ccccc21`, the LD50 is 190 mg/kg.
For the compound `OCCS`, the LD50 was 244 mg/kg.
`CCc1cc(CC)cc(OC(=O)NC)c1`: the LD50 was 1600 mg/kg.
Turning to `CC(=O)Oc1ccc(C2(c3ccc(OC(C)=O)cc3)C(=O)N(C(C)=O)c3ccccc32)cc1`, the LD50 is 500 mg/kg.
For `NCCNCCNCCO`, the LD50 was 4630 mg/kg.
Take `COP(=S)(OC)SCSc1ccc(Cl)c(Cl)c1`: the LD50 was 220 mg/kg.
On to `c1ccsc1`, for which the LD50 was 1400 mg/kg.
As for `CC(C)Cc1ccc(C(C)C(=O)OCCN2CCN(c3cccc(Cl)c3)CC2)cc1` (stereo not given), the LD50 was 3350 mg/kg.
As for `CCOc1ccccc1C(N)=O`, the median lethal dose (LD50) is 2200 mg/kg.
As to `CNC(=O)Oc1cccc(N=CN(C)C)c1`, the LD50 is 20 mg/kg.
Turning to `Cc1ccc(N)cc1O`, the LD50 was 3600 mg/kg.
As for `c1ccc2[nH]ccc2c1`, the LD50 was 1000 mg/kg.
For `OCC(O)CN1CCN(c2ccccc2)CC1` (stereo not given), the 50% lethal dose (LD50) was 750 mg/kg.
